Experiments:
FLT3 = target: T1, FLT3 (Homo sapiens, UniProt P36888); assay: TR-FRET kinase activity assay, FLT3; assay type: biochemical; conditions: ATP at Km, 60 minutes
T1 sequence (P36888 27-993): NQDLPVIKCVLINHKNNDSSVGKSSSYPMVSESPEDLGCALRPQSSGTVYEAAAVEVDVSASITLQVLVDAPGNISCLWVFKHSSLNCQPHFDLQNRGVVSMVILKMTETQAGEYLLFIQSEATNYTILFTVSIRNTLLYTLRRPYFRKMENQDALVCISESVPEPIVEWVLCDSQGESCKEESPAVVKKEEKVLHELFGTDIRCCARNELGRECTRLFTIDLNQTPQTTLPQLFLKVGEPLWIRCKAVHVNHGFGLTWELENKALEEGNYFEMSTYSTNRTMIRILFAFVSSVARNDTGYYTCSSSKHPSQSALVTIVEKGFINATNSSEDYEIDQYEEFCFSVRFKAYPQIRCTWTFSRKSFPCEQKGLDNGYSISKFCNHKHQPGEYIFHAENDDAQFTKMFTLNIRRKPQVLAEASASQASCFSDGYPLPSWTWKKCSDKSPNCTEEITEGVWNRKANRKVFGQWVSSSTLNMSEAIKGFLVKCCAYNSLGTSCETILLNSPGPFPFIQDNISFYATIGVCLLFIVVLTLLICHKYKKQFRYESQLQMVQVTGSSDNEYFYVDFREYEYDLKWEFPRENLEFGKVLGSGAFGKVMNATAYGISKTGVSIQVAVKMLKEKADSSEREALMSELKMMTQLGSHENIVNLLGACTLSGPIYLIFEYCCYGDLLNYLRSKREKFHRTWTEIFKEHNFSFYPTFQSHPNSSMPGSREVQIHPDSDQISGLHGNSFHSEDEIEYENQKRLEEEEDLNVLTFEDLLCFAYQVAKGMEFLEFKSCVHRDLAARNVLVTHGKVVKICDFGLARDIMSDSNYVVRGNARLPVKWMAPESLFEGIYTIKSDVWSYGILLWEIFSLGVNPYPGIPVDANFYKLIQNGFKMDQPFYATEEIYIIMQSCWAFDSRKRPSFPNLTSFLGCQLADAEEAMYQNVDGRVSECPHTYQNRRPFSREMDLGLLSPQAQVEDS
Experimental: (§1) IC50 values for compound inhibition of AXL, FLT3, MERTK and TYRO3 activity were determined by using a TR-FRET activity assay. A polypeptide substrate with a fluorescent label is phosphorylated on a tyrosine by each enzyme, where the now phosphorylated product is bound by a Europium-labeled antibody specific to that phosphorylation site. The proximity between the antibody and the substrate gives a signal known as TR-FRET. As the enzyme is inhibited by compound, less phosphorylated peptide product is made causing a decrease in overall signal.
(§2) Activity assays were performed in a 384-well, small volume, black microplates in an active enzyme volume of 10 μL and final developed volume of 20 μL. Final assay conditions are 50 mM HEPES pH 7.5, 10 mM MgCl2, 1 mM EGTA, 0.01% Brij 35 and 1 mM DTT all at RT. Enzyme, substrate labeled peptide and compound are mixed, and then the reaction is initiated with the addition of ATP at Km concentration for each enzyme. The reaction is allowed to run 60 minutes and then quenched with a 12.5 mM EDTA (ethylenediamine tetraacetic acid) solution. The plate is then developed with the addition of Europium labeled antibody for a final volume of 20 μL and is then incubated for 30 minutes in darkness. Plates are read in a Pherastar plate reader. Data is analyzed in GraphPad PRISM.
(§3) The results of these assays are shown in Table 1, below, wherein “No.” designates compound number (FIG. 1); “A” represents a value of ≤100 nM; “B” a value of >100 nM and ≤1 μM; “C” a value of >1 μM and ≤10 μM; “D” a value of >10 μM; “ND” is not determined. The ratio of Mer to FLT3 is calculated as follows: FLT3 IC50/Mer IC50. “+” represents a ratio of >2.0 and <10; “++” represents a ratio of between 10 and 100; and “+++” represents a ratio of >100.

TYRO3 = target: T2, TYRO3 (Homo sapiens, UniProt Q06418); assay: TR-FRET kinase activity assay, TYRO3; assay type: biochemical; conditions: ATP at Km, 60 minutes
T2 sequence (Q06418 41-890): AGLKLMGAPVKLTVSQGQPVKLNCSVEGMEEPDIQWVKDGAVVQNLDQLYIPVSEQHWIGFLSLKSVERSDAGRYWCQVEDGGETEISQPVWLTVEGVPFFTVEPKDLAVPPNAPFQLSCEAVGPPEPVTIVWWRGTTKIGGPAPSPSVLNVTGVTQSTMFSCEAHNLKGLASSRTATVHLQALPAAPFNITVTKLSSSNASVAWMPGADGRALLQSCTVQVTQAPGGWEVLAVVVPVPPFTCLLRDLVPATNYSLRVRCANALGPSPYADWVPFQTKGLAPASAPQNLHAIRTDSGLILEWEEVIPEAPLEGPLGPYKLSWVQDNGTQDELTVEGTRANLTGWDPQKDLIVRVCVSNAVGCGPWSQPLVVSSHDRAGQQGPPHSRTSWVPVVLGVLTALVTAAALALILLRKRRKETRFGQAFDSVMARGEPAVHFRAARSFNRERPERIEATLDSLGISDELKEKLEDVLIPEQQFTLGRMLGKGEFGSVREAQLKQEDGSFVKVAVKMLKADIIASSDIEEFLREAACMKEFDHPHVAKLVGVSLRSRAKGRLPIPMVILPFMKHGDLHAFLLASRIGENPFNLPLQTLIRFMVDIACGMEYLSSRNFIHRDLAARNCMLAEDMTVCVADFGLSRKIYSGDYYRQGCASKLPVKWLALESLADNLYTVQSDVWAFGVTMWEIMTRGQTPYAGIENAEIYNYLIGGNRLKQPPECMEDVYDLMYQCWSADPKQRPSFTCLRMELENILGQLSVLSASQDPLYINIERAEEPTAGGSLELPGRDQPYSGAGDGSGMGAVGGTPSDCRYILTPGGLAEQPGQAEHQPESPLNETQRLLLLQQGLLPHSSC
Experimental: as §1, §2, §3

Row | SMILES | IC50 (FLT3) | IC50 (TYRO3)
1 | CCCCCC(C)Nc1ncc2c(C3=CCC(C(=O)N4CCOCC4)CC3)cc(C3CCC(O)CC3)n2n1 (mixture of isomers) [Compound 110] | 100 to 1000 nM | ≤ 100 nM
2 | CCCCC[C@H](C)Nc1ncc2c(-c3ccc(CN4CCN(C)CC4)cc3)cc([C@H]3CC[C@@H](O)CC3)n2n1 [Compound 105] | 100 to 1000 nM | ≤ 100 nM
3 | COCC(C)Nc1ncc2c(-c3ccc4nccn4c3)cc(C3CCC(O)CC3)n2n1 (centres unmarked) [Compound 193] | 1000 to 10000 nM | ≤ 100 nM
4 | COC[C@H](C)Nc1ncc2c(-c3cncc(F)c3)cc([C@H]3CC[C@H](O)CC3)n2n1 [Compound 195] | 1000 to 10000 nM | ≤ 100 nM
5 | COC[C@H](C)Nc1ncc2c(-c3ccc(C(=O)N4CCS(=O)(=O)CC4)cc3)cc([C@H]3CC[C@H](O)CC3)n2n1 [Compound 197] | 100 to 1000 nM | ≤ 100 nM
6 | COCC(C)Nc1ncc2c(-c3ccc(-c4nnc(C)o4)cc3)cc(C3CCC(O)CC3)n2n1 (centres unmarked) [Compound 198] | 100 to 1000 nM | ≤ 100 nM
7 | COC[C@H](C)Nc1ncc2c(-c3cncc(C#N)c3)cc([C@H]3CC[C@H](O)CC3)n2n1 [Compound 201] | 1000 to 10000 nM | ≤ 100 nM
8 | CC(Nc1ncc2c(-c3ccc(CN4CCOCC4)cc3)cc(C3CCC(O)CC3)n2n1)C(F)(F)F (centres unmarked) [Compound 202] | 100 to 1000 nM | ≤ 100 nM
9 | C[C@H](Nc1ncc2c(-c3ccc(CN4CCOCC4)cc3)cc([C@H]3CC[C@H](O)CC3)n2n1)[C@H]1CCCO1 [Compound 204] | 1000 to 10000 nM | 100 to 1000 nM
10 | C[C@H](Nc1ncc2c(-c3ccc(CN4CCOCC4)cc3)cc([C@H]3CC[C@H](O)CC3)n2n1)[C@@H]1CCCO1 [Compound 205] | 1000 to 10000 nM | ≤ 100 nM
11 | COC[C@H](C)Nc1ncc2c(-c3cnn(C(C)(C)C)c3)cc([C@H]3CC[C@H](O)CC3)n2n1 [Compound 206] | 1000 to 10000 nM | ≤ 100 nM
12 | COCC[C@@H](C)Nc1ncc2c(-c3ccc(CN4CCOCC4)cc3)cc([C@H]3CC[C@H](O)CC3)n2n1 [Compound 212] | 1000 to 10000 nM | 100 to 1000 nM
13 | Cc1cc(-c2cc([C@H]3CC[C@H](O)CC3)n3nc(N[C@@H](C)CC(F)(F)F)ncc23)ccn1 [Compound 213] | ≤ 100 nM | ≤ 100 nM
14 | CC(C)OC[C@H](C)Nc1ncc2c(-c3ccc(CN4CCOCC4)cc3)cc([C@H]3CC[C@H](O)CC3)n2n1 [Compound 214] | 1000 to 10000 nM | ≤ 100 nM
15 | Cc1cc(-c2cc([C@H]3CC[C@H](O)CC3)n3nc(N[C@@H](C)COC(C)C)ncc23)ccn1 [Compound 215] | 1000 to 10000 nM | ≤ 100 nM
16 | C[C@@H](CC1CC1)Nc1ncc2c(-c3ccc(CN4CCN(C)CC4)cc3)cc([C@H]3CC[C@H](O)CC3)n2n1 [Compound 216] | ≤ 100 nM | ≤ 100 nM
17 | COC[C@H](C)Nc1ncc2c(-c3cccc(CN4CCOCC4)c3)cc([C@H]3CC[C@H](O)CC3)n2n1 [Compound 217] | 100 to 1000 nM | ≤ 100 nM
18 | COC[C@H](C)Nc1ncc2c(-c3cccc(CN4CCN(C)CC4)c3)cc([C@H]3CC[C@H](O)CC3)n2n1 [Compound 218] | 100 to 1000 nM | ≤ 100 nM
19 | COC[C@H](C)Nc1ncc2c(-c3cncc(CN4CCOCC4)c3)cc([C@H]3CC[C@H](O)CC3)n2n1 [Compound 219] | 1000 to 10000 nM | ≤ 100 nM
20 | COC[C@H](C)Nc1ncc2c(-c3cnn(Cc4cccnc4)c3)cc([C@H]3CC[C@H](O)CC3)n2n1 [Compound 220] | 100 to 1000 nM | ≤ 100 nM
21 | COCC(C)Nc1ncc2c(-c3cnn(C4COC4)c3)cc(C3CCC(O)CC3)n2n1 (centres unmarked) [Compound 221] | 100 to 1000 nM | ≤ 100 nM
22 | COC[C@H](C)Nc1ncc2c(-c3cnn(CCC#N)c3)cc([C@H]3CC[C@H](O)CC3)n2n1 [Compound 222] | 100 to 1000 nM | ≤ 100 nM
23 | COC[C@H](C)Nc1ncc2c(-c3cccc(CN4CCC(F)(F)C4)c3)cc([C@H]3CC[C@H](O)CC3)n2n1 [Compound 223] | 1000 to 10000 nM | ≤ 100 nM

Second part, the compound after the results:

Row | IC50 (FLT3) | IC50 (TYRO3) | SMILES
24 | 100 to 1000 nM | ≤ 100 nM | CCCCC[C@H](C)Nc1ncc2c(-c3ccc(CN4CCN(C)CC4)cc3)cc([C@H]3CC[C@H](O)CC3)n2n1 [Compound 104]
25 | 100 to 1000 nM | ≤ 100 nM | CCCCC[C@H](C)Nc1ncc2c(NC3CCN(C)CC3)cc([C@H]3CC[C@H](O)CC3)n2n1 [Compound 107]
26 | 100 to 1000 nM | 100 to 1000 nM | CCCCC[C@H](C)Nc1ncc2c([C@H]3CC[C@H](C(=O)N4CCOCC4)CC3)cc([C@H]3CC[C@H](O)CC3)n2n1 [Compound 108]
27 | 100 to 1000 nM | ≤ 100 nM | CCCCC[C@H](C)Nc1ncc2c([C@H]3CC[C@@H](C(=O)N4CCOCC4)CC3)cc([C@H]3CC[C@H](O)CC3)n2n1 [Compound 109, ((cis)-4-(2-((S)-heptan-2-ylamino)-7-((trans)-4-hydroxycyclohexyl)pyrrolo[2,1-f][1,2,4]triazin-5-yl)cyclohexyl)(morpholino)methanone]
28 | 1000 to 10000 nM | ≤ 100 nM | COC[C@H](C)Nc1ncc2c(-c3cncc(S(C)(=O)=O)c3)cc([C@H]3CC[C@H](O)CC3)n2n1 [Compound 194]
29 | 100 to 1000 nM | ≤ 100 nM | COC[C@H](C)Nc1ncc2c(-c3ccc(C(=O)N4CCCC4)cc3)cc([C@H]3CC[C@H](O)CC3)n2n1 [Compound 196]
30 | ≤ 100 nM | ≤ 100 nM | C[C@@H](CC(F)(F)F)Nc1ncc2c(-c3ccc(CN4CCOCC4)cc3)cc([C@H]3CC[C@H](O)CC3)n2n1 [Compound 203]
31 | 100 to 1000 nM | ≤ 100 nM | COC[C@H](C)Nc1ncc2c(-c3cnn(C(F)F)c3)cc([C@H]3CC[C@H](O)CC3)n2n1 [Compound 207]
32 | 1000 to 10000 nM | ≤ 100 nM | COC[C@H](C)Nc1ncc2c(-c3ccn(C)n3)cc([C@H]3CC[C@H](O)CC3)n2n1 [Compound 208]
33 | 100 to 1000 nM | ≤ 100 nM | COCCn1cc(-c2cc([C@H]3CC[C@H](O)CC3)n3nc(N[C@@H](C)COC)ncc23)cn1 [Compound 209]
34 | 1000 to 10000 nM | ≤ 100 nM | COC[C@H](C)Nc1ncc2c(-c3cccc4c3CNC4=O)cc([C@H]3CC[C@H](O)CC3)n2n1 [Compound 210]

— patent publication US11040981B2, “Pyrrolotriazine compounds and methods of inhibiting TAM kinases” (Syros Pharmaceuticals, Inc., priority 2017, dated 2021)
